Results from PubChem BioAssay AID248 (DTP/NCI, 2004).
Values joined by “and” are separate entries in the source; they are usually repeats but may differ in a detail not shown here. Identical values can stand only once. Toxic doses and inconclusive results are not listed. Rule as the data show it: active = T/C of 150% or more; inactive = T/C below 125%. Peptide text beside a SMILES is read from it. * marks the point of attachment. Boc = CC(C)(C)OC(=O)*

Test system: L1210 leukemia ip in BDF1 mice, survival T/C
Test: NCI In Vivo Anticancer Drug Screen. Data for tumor model L1210 Leukemia (intraperitoneal) in B6D2F1 (BDF1) mice
Settings: endpoint: mean survival time, higher = longer survival
Method in brief: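 Transplantable tumor model; survival measured in treated vs vehicle control mice. Value = treated/control.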

[1] = dose: 100.0 mg/kg/injection, schedule: Q04DX003 (ip), vehicle: saline with Tween-80
[2] = dose: 200.0 mg/kg/injection, schedule: Q04DX003 (ip), vehicle: saline with Tween-80
[3] = dose: 25.0 mg/kg/injection, schedule: Q01DX009 (ip), vehicle: saline
[4] = dose: 25.0 mg/kg/injection, schedule: Q04DX003 (ip), vehicle: saline
[5] = dose: 100.0 mg/kg/injection, schedule: Q01DX001 (ip), vehicle: saline
[6] = dose: 200.0 mg/kg/injection, schedule: Q01DX001 (ip), vehicle: saline
[7] = dose: 100.0 mg/kg/injection, schedule: Q01DX001 (ip), vehicle: carboxymethylcellulose (CMC)
[8] = dose: 200.0 mg/kg/injection, schedule: Q01DX001 (ip), vehicle: carboxymethylcellulose (CMC)
[9] = dose: 400.0 mg/kg/injection, schedule: Q01DX001 (ip), vehicle: saline
[10] = dose: 100.0 mg/kg/injection, schedule: Q04DX002 (ip), vehicle: saline with Tween-80
[11] = dose: 200.0 mg/kg/injection, schedule: Q04DX002 (ip), vehicle: saline with Tween-80
[12] = dose: 400.0 mg/kg/injection, schedule: Q04DX002 (ip), vehicle: saline with Tween-80
[13] = dose: 400.0 mg/kg/injection, schedule: Q04DX003 (ip), vehicle: saline with Tween-80
[14] = dose: 100.0 mg/kg/injection, schedule: Q01DX009 (ip), vehicle: saline with Tween-80
[15] = dose: 200.0 mg/kg/injection, schedule: Q01DX009 (ip), vehicle: saline with Tween-80

Measured: T/C

CC(N=CN(C)C)c1cccc2ccccc12 (centres undefined)
inactive: dose: 75.0 mg/kg/injection, schedule: Q01DX009 (ip), vehicle: saline with Tween-80 102 % of control | [1] 97 % of control | dose: 150.0 mg/kg/injection, schedule: Q01DX009 (ip), vehicle: saline with Tween-80 112 % of control | [2] 102 % of control | dose: 300.0 mg/kg/injection, schedule: Q01DX009 (ip), vehicle: saline with Tween-80 112 % of control

COc1cc(C(=O)Nc2ccc(N(C)C)cc2)cc(OC)c1OC
inactive: [3] 103 % of control | [4] 108 % of control | dose: 50.0 mg/kg/injection, schedule: Q01DX009 (ip), vehicle: saline 108 % of control | dose: 50.0 mg/kg/injection, schedule: Q04DX003 (ip), vehicle: saline 97 % of control | dose: 100.0 mg/kg/injection, schedule: Q01DX009 (ip), vehicle: saline 97 % of control | dose: 100.0 mg/kg/injection, schedule: Q04DX003 (ip), vehicle: saline 100 % of control | dose: 200.0 mg/kg/injection, schedule: Q01DX009 (ip), vehicle: saline 104 % of control | dose: 200.0 mg/kg/injection, schedule: Q04DX003 (ip), vehicle: saline 103 % of control | dose: 400.0 mg/kg/injection, schedule: Q04DX003 (ip), vehicle: saline 100 % of control

COc1ccc2c3c1OC1C=CC(O)C4C(C2)N(C)CCC314 (centres undefined)
inactive: [5] 98 % of control | [6] 89 % of control

Oc1ccc(Cl)c2cccnc12
inactive: dose: 4.0 mg/kg/injection, schedule: Q01DX015 (ip), vehicle: carboxymethylcellulose (CMC) 103 % of control | dose: 8.0 mg/kg/injection, schedule: Q01DX015 (ip), vehicle: carboxymethylcellulose (CMC) 106 % of control | dose: 16.0 mg/kg/injection, schedule: Q01DX015 (ip), vehicle: carboxymethylcellulose (CMC) 103 % of control | dose: 32.0 mg/kg/injection, schedule: Q01DX015 (ip), vehicle: carboxymethylcellulose (CMC) 95 % of control | dose: 64.0 mg/kg/injection, schedule: Q01DX015 (ip), vehicle: carboxymethylcellulose (CMC) 102 % of control | [7] 90 % of control | dose: 128.0 mg/kg/injection, schedule: Q01DX015 (ip), vehicle: carboxymethylcellulose (CMC) 100 % of control | [8] 103 % of control

Cc1ccc(S(=O)(=O)NC(=O)N2CCCC2)cc1
inactive: dose: 50.0 mg/kg/injection, schedule: Q01DX001 (ip), vehicle: saline 109 % of control | [5] 97 % of control | [6] 94 % of control | [9] 88 % of control

COc1ccc(NC(=O)Nc2ccccc2Cl)c(Cl)c1
inactive: [10] 90 % of control | [11] 87 % of control | [12] 87 % of control

Cc1ccc(NC(=S)Nc2ccc(Cc3ccc(NC(=S)Nc4ccc(C)cc4)cc3)cc2)cc1
inactive: [10] 98 % of control | [11] 103 % of control | [12] 88 % of control

CCCCCCCc1ccc(C(C)=O)cc1
inactive: [1] 100 % of control | dose: 132.0 mg/kg/injection, schedule: Q04DX003 (ip), vehicle: saline with Tween-80 97 % of control | [2] 101 % of control | dose: 300.0 mg/kg/injection, schedule: Q04DX003 (ip), vehicle: saline with Tween-80 93 % of control | [13] 108 % of control

O=C(CCCCCCCCC(=O)OO)OO (tested in a mixture with another compound)
inactive: [1] 98 % of control | [2] 92 % of control | [13] 90 % of control

CC[P+](CC)(CC)c1ccccc1
inactive: dose: 6.0 mg/kg/injection, schedule: Q04DX003 (ip), vehicle: saline 103 % of control | dose: 6.25 mg/kg/injection, schedule: Q01DX009 (ip), vehicle: saline 100 % of control | dose: 12.0 mg/kg/injection, schedule: Q04DX003 (ip), vehicle: saline 107 % of control | dose: 12.5 mg/kg/injection, schedule: Q01DX009 (ip), vehicle: saline 100 % of control | dose: 25.0 mg/kg/injection, schedule: Q01DX009 (ip), vehicle: Klucel (hydroxypropylcellulose) (HPC) 100 % of control | [3] 110 % of control | [4] 96 % of control and 92 % of control

O=C(NCCCCCCCCCCCCNC(=O)Nc1ccc(C2=NCC(O)CN2)cc1)Nc1ccc(C2=NCC(O)CN2)cc1 (centres undefined)
inactive: dose: 62.5 mg/kg/injection, schedule: Q01DX Z (ip), vehicle: carboxymethylcellulose (CMC) 113 % of control | dose: 250.0 mg/kg/injection, schedule: Q01DX Z (ip), vehicle: carboxymethylcellulose (CMC) 122 % of control

CC1(c2ccc(O)cc2)CCC(C(C)(C)c2ccc(O)cc2)CC1 (centres undefined)
inactive: [14] 107 % of control | [15] 107 % of control

CCCCCCOC(CN)C(Cl)(Cl)Cl (centres undefined)
inactive: dose: 12.5 mg/kg/injection, schedule: Q04DX003 (ip), vehicle: saline with Tween-80 107 % of control | dose: 25.0 mg/kg/injection, schedule: Q01DX009 (ip), vehicle: saline with Tween-80 116 % of control | dose: 25.0 mg/kg/injection, schedule: Q04DX003 (ip), vehicle: saline with Tween-80 109 % of control | dose: 50.0 mg/kg/injection, schedule: Q01DX009 (ip), vehicle: saline with Tween-80 97 % of control | dose: 50.0 mg/kg/injection, schedule: Q04DX003 (ip), vehicle: saline with Tween-80 102 % of control

Nc1nc(=S)[nH]c2nsnc12
inactive: [1] 98 % of control | [2] 96 % of control | [13] 103 % of control

COC(=O)CCc1ccc(NP(=O)(N2CC2)N2CC2)cc1
inactive: dose: 25.0 mg/kg/injection, schedule: Q01DX015 (ip), vehicle: carboxymethylcellulose (CMC) 122 % of control | dose: 50.0 mg/kg/injection, schedule: Q01DX015 (ip), vehicle: carboxymethylcellulose (CMC) 119 % of control

CCCCCCCCCCCCCCCCOS(=O)(=O)O
inactive: dose: 37.5 mg/kg/injection, schedule: Q04DX003 (ip), vehicle: saline 103 % of control | dose: 75.0 mg/kg/injection, schedule: Q01DX001 (ip), vehicle: saline 106 % of control | dose: 75.0 mg/kg/injection, schedule: Q04DX003 (ip), vehicle: saline 97 % of control | dose: 150.0 mg/kg/injection, schedule: Q01DX001 (ip), vehicle: saline 90 % of control | dose: 150.0 mg/kg/injection, schedule: Q04DX003 (ip), vehicle: saline 96 % of control

CCCCOC(=O)Nc1ccc(OCC)cc1
inactive: [5] 107 % of control | [6] 95 % of control | [9] 93 % of control

CCOC(=O)C(C(=O)OCC)c1cc(NC(=O)c2ccccc2)ccc1NC(=O)c1ccccc1
inactive: [1] 98 % of control | [2] 95 % of control | [13] 95 % of control

Cn1c(=O)c2[nH]c(CCCc3nc4c([nH]3)c(=O)n(C)c(=O)n4C)nc2n(C)c1=O
inactive: dose: 25.0 mg/kg/injection, schedule: Q01DX001 (ip), vehicle: carboxymethylcellulose (CMC) 93 % of control | dose: 50.0 mg/kg/injection, schedule: Q01DX001 (ip), vehicle: carboxymethylcellulose (CMC) 105 % of control | [7] 98 % of control | [8] 101 % of control

CC(=O)c1c(C)cc(=O)[nH]c1O
inactive: [5] 107 % of control | [6] 97 % of control | [9] 110 % of control

COC(=O)CNC(=O)C1CCCN1C(=O)C(Cc1c[nH]c2ccccc12)NC(=O)OC(C)(C)C (stereo not drawn) (Boc-Trp-Pro-Gly-OMe; configuration not given here)
inactive: [14] 88 % of control | [15] 100 % of control | dose: 400.0 mg/kg/injection, schedule: Q01DX009 (ip), vehicle: saline with Tween-80 100 % of control
